Measured values reported in patent US9944666B2, “Compounds that are S1P modulating agents and/or ATX modulating agents” (BIOGEN MA INC., priority 2012, dated 2018).

Biological target: T1, human S1P4 (Homo sapiens, UniProt O95977)
T1 construct: host or cells: recombinant CHEM cells
T1 sequence (O95977 1-384): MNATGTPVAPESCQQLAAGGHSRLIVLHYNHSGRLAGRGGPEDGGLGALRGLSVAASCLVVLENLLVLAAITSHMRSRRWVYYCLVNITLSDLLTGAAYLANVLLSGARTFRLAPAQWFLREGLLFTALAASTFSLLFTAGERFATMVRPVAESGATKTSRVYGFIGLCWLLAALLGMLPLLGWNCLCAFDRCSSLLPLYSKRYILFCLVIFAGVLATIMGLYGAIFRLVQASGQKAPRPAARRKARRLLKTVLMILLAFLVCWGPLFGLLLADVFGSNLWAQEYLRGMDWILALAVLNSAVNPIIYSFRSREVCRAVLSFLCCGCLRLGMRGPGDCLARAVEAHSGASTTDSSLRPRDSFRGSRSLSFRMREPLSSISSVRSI
Assay: S1P receptor calcium mobilization assay, agonist format
Format: cell-based
Conditions: recombinant CHEM cells expressing human S1P4, calcium flux, FLIPR
Procedure: (§1) Compounds that are not specific for a particular S1P receptor can cause undesirable side effects. Accordingly, compounds are tested to identify those that are specific. Accordingly, the test compounds are tested in a calcium mobilization assay/S1P receptor activity assay. The procedure is essentially as described in Davis et al. (2005) Journal of Biological Chemistry, vol. 280, pp. 9833-9841, which is incorporated by reference in its entirety with the following modifications. Calcium mobilization assays are performed in recombinant CHEM cells expressing human S1P1, S1P2, S1P3, S1P4, or S1P5 purchased from Millipore (Billerica, Mass.). To detect free intracellular calcium, S1P1, S1P2, S1P3, S1P4, or S1P5 cells are loaded with FLIPR Calcium 4 dye from Molecular Devices (Sunnyvale, Calif.). Cells are imaged for calcium mobilization using a FLIPR^TERA equipped with a 96-well dispense head.
Agonist percentage activation determinations were obtained by assaying sample compounds and referencing the Emax control for each receptor profiled. Antagonist percentage inhibition determinations were obtained by assaying sample compounds and referencing the control EC80 wells for each receptor profiled. […]
Assay was read for 180 seconds using the FLIPR^TETRA (This assay run added sample compounds and reference agonist to respective wells). […]

IC50	Compound
≤ 500 nM	CC1(C)CCC(Oc2ccc3cc(CN4CC(C5CCCC(C(=O)O)C5)C4)ccc3c2)CC1 (stereo not shown) [Example 62, 3-(1-((6-((4,4-dimethylcyclohexyl)oxy)naphthalen-2-yl)methyl)azetidin-3-yl)cyclohexanecarboxylic acid]

Biological target: T1, human S1P4
Assay: S1P receptor calcium mobilization assay, antagonist format
Format: cell-based
Conditions: recombinant CHEM cells expressing human S1P4; calcium flux, FLIPR; stimulated with EC80 of reference agonist
Procedure: as §1
Agonist percentage activation determinations were obtained by assaying sample compounds and referencing the Emax control for each receptor profiled. Antagonist percentage inhibition determinations were obtained by assaying sample compounds and referencing the control EC80 wells for each receptor profiled.
Sample compounds were plated in an eight-point, four-fold dilution series in duplicate with a top concentration of 10 μM. The concentrations described here reflect the final concentration of the compounds during the antagonist assay. During the agonist assay the compound concentrations were 1.25 fold higher to allow for the final desired concentration to be achieved with further dilution by EC80 of reference agonists during the antagonist assay.
Reference agonists were handled as mentioned above serving as assay control. The reference agonists were handled as described above for Emax.
Assay was read for 180 seconds using the FLIPR^TETRA (This assay run added sample compounds and reference agonist to respective wells). At the completion of the first “Single Addition” assay run, assay plate was removed from the FLIPR^TETRA and placed at 25° C. for seven (7) minutes.
Using the EC80 values determined during the agonist assay, stimulated all pre-incubated sample compound and reference antagonist (if applicable) wells with EC80 of reference agonist. Read for 180 seconds using the FLIPR^TETRA (This assay added reference agonist to respective wells-then fluorescence measurements were collected to calculate percentage inhibition values).

Compound	IC50
CC(C)(C)[C@H]1CC[C@H](Oc2ccc3cc(CN4CCN(c5ncccn5)CC4)ccc3c2)CC1 [Example 44, 2-(4-((6-((trans-4-(tert-butyl)cyclohexyl)oxy)naphthalen-2-yl)methyl)piperazin-1-yl)pyrimidine]	≤ 500 nM
CC(C)(C)[C@H]1CC[C@H](Oc2ccc3cc(CN4CC5CC(C4)C5C(=O)O)ccc3c2)CC1 (stereo partly drawn) [Example 74, 3-((6-((trans-4-(tert-butyl)cyclohexyl)oxy)naphthalen-2-yl)methyl)-3-azabicyclo[3.1.1]heptane-6-carboxylic acid]	≤ 100 nM

Second part, the compound after the results:

IC50	Compound
≤ 250 nM	CC(C)[C@H]1CC[C@H](Oc2ccc3cc(CNC45CCC(C(=O)O)(CC4)CC5)ccc3c2)CC1 [Example 4, 4-(((6-((trans-4-isopropylcyclohexyl)oxy)naphthalen-2-yl)methyl)amino)bicyclo[2.2.2]octane-1-carboxylic acid]
≤ 250 nM	O=C(O)C12CCC(NCc3ccc4cc(OC5CCC6(CCCCC6)CC5)ccc4c3)(CC1)CC2 [Example 11, 4-(((6-(spiro[5.5]undecan-3-yloxy)naphthalen-2-yl)methyl)amino)bicyclo[2.2.2]octane-1-carboxylic acid]
≤ 500 nM	CC(C)(C)[C@H]1CC[C@H](Oc2ccc3cc(CN4CCN(c5ccncc5)CC4)ccc3c2)CC1 [Example 46, 1-((6-((trans-4-(tert-butyl)cyclohexyl)oxy)naphthalen-2-yl)methyl)-4-(pyridin-4-yl)piperazine]
≤ 100 nM	CC(C)(C)[C@H]1CC[C@H](Oc2ccc3cc(CN4CC(C5CCCC(C(=O)O)C5)C4)ccc3c2)CC1 (stereo partly drawn) [Example 58, 3-(1-((6-((trans-4-(tert-butyl)cyclohexyl)oxy)naphthalen-2-yl)methyl)azetidin-3-yl)cyclohexanecarboxylic acid]
≤ 500 nM	CC(C)(C)[C@H]1CC[C@H](Oc2ccc3cc(CN4CC5(COC5)C4)ccc3c2)CC1 [Example 67, 6-((6-((trans-4-(tert-butyl)cyclohexyl)oxy)naphthalen-2-yl)methyl)-2-oxa-6-azaspiro[3.3]heptane]
≤ 250 nM	CC(C)(C)[C@H]1CC[C@H](Oc2ccc3cc(CNC45CCC(C(=O)O)(CC4)C(O)C5)ccc3c2)CC1 (stereo partly drawn) [Example 80, 4-((6-(trans-4-tert-Butylcyclohexyloxy)naphthalen-2-yl)methylamino)-2-hydroxybicyclo[2.2.2]octane-1-carboxylic acid]

Biological target: T2, Human ATX protein (Homo sapiens, UniProt Q13822)
T2 construct: made in house
Assay: ATX biochemical FRET assay with FS-3 substrate
Conditions: FS-3 2 μM, ATX 1.0 μg/mL, room temperature 2 hours, fluorescence 485/538 nm
How it was run: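 Purified human ATX (1.0 μg/mL final) preincubated with compound 30 min at room temperature in Tris pH 7.4 buffer with NaCl, KCl, CaCl2, MgCl2 and 1 mg/mL fatty acid-free BSA. FS-3 added to 2 μM final; 2 h at room temperature in the dark, fluorescence at ex 485/em 538 nm.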

Compound	IC50
O=C(O)C1CC2CC(C(=O)O)CC(C1)N2Cc1ccc2c(C(F)(F)F)c(O[C@H]3CC[C@@H](C(F)(F)F)CC3)ccc2c1 (stereo partly drawn) [Example 282, (1R,3S,5S)-9-((5-(trifluoromethyl)-6-((cis-4-(trifluoromethyl)cyclohexyl)oxy)naphthalen-2-yl)methyl)-9-azabicyclo[3.3.1]nonane-3,7-dicarboxylic acid]	≤ 100 nM
O=C(O)C12CC3CC(C1)N(Cc1ccc4c(C(F)(F)F)c(O[C@H]5CC[C@@H](C(F)(F)F)CC5)ccc4c1)C(C3)C2 [Example 283, 9-(1R,3S,5S,7S)-2-((5-(trifluoromethyl)-6-((cis-4-(trifluoromethyl)cyclohexyl)oxy)naphthalen-2-yl)methyl)-2-azaadamantane-5-carboxylic acid]	≤ 100 nM
NC1CC2CC(C(=O)O)CC(C1)N2Cc1ccc2c(C(F)(F)F)c(O[C@H]3CC[C@@H](C(F)(F)F)CC3)ccc2c1 (stereo partly drawn) [Example 284, 9-(1R,3R,5S)-7-amino-9-((5-(trifluoromethyl)-6-((cis-4-(trifluoromethyl)cyclohexyl)oxy)naphthalen-2-yl)methyl)-9-azabicyclo[3.3.1]nonane-3-carboxylic acid]	≤ 250 nM
CCC1CCC(Oc2ccc3cc(C(CC)N4C5CCCC4CC(C(=O)O)C5)ccc3c2C(F)(F)F)CC1 [Example 297, 9-((R)-1-(6-(((1s,4S)-4-ethylcyclohexyl)oxy)-5-(trifluoromethyl)naphthalen-2-yl)propyl)-9-azabicyclo[3.3.1]nonane-3-carboxylic acid]	≤ 250 nM
